Laboratory results from article PMC5686105, “The industrial anaerobe Clostridium acetobutylicum uses polyketides to regulate cellular differentiation” (Nature Communications, 2017).

Legend:
[1] = biological target: T1, PKS (ca_c3355) (Clostridium acetobutylicum, UniProt Q97DW5); assay: in vitro product assay by LC-MS; format: biochemical; details: 100 mM phosphate pH 7.0, 2 mM malonyl-CoA, 2 mM NADPH, 8 uM PKS, room temperature, 2 h; KR domain reductant
[2] = biological target: T1, PKS (ca_c3355); assay: in vitro product assay by LC-MS; […] acyl loading by SDS-PAGE autoradiography; format: biochemical; details: 100 mM phosphate pH 7.0, 2 mM malonyl-CoA, 8 uM PKS, room temperature, 2 h; covalent acyl-S-enzyme intermediate seen with labelled compound (made in situ by MatB, pH 8.0, 25 °C)

T1 sequence (Q97DW5 1-1795): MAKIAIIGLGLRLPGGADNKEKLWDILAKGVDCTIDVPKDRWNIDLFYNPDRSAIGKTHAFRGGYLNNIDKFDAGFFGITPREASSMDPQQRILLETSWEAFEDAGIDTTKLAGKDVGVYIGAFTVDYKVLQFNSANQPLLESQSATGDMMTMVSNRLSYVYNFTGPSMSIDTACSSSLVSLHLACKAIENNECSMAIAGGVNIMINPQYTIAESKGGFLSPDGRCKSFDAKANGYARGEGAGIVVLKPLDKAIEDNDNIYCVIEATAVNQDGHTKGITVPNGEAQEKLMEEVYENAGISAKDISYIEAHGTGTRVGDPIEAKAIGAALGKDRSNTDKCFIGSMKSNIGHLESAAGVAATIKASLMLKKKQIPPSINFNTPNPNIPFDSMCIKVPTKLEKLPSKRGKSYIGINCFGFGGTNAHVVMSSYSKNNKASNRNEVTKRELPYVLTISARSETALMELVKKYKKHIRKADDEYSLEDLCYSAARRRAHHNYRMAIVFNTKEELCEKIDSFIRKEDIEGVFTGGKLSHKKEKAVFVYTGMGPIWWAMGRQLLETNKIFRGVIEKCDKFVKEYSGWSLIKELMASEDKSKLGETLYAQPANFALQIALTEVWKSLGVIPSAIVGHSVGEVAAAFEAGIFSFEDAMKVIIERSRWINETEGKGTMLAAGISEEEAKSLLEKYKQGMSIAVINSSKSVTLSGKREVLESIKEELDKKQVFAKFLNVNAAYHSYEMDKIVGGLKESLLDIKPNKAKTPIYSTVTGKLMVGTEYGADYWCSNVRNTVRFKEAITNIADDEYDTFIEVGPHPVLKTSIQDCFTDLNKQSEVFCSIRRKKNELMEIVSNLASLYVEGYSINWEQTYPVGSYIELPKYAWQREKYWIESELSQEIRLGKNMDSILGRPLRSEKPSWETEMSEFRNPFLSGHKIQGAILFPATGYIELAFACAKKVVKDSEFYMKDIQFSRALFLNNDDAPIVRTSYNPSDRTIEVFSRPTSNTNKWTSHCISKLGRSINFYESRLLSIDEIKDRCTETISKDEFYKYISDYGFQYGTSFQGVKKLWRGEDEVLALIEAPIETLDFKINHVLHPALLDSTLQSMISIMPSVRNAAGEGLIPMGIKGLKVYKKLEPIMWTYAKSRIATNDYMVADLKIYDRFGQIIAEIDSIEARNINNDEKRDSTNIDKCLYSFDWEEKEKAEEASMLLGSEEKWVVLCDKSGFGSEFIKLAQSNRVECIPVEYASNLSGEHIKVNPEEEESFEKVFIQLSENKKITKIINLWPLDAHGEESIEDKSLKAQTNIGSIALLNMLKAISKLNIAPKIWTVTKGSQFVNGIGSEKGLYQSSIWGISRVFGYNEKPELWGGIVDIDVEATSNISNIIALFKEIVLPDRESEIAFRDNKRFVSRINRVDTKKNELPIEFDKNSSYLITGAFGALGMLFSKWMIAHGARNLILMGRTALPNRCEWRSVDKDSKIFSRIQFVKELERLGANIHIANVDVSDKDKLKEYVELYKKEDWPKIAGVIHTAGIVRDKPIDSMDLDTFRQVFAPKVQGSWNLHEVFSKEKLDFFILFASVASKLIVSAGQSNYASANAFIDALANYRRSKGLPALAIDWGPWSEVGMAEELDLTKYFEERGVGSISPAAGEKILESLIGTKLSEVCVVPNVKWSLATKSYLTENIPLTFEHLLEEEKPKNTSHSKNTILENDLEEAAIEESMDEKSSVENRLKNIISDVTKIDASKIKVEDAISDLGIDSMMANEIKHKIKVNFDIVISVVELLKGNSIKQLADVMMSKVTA

Compound | in vitro product assay by LC-MS [1] | in vitro product assay by LC-MS; 14C acyl loading by SDS-PAGE autoradiography [2]
NC(=O)C1=CN([C@@H]2O[C@H](COP(=O)(O)OP(=O)(O)OC[C@H]3O[C@@H](n4cnc5c(N)ncnc54)[C@H](OP(=O)(O)O)[C@@H]3O)[C@@H](O)[C@H]2O)C=CC1 [NADPH] | Addition of NADPH to this reaction enabled function of the KR domain | 
CC(C)(COP(=O)(O)OP(=O)(O)OC[C@H]1O[C@@H](n2cnc3c(N)ncnc32)[C@H](O)[C@@H]1OP(=O)(O)O)[C@@H](O)C(=O)NCCC(=O)NCCSC(=O)CC(=O)O [malonyl-CoA] |  | in vitro reconstitution of the activity of PKS with malonyl-CoA showed a dominant product
